According to publication PMC11672294, “The Antipsychotic Drug Aripiprazole Suppresses Colorectal Cancer by Targeting LAMP2a to Induce RNH1/miR‐99a/mTOR‐Mediated Autophagy and Apoptosis” (Advanced Science, 2024):
Where a name gives a salt, the structure may show the parent alone. Residues, ends and D or L forms follow the SMILES beside them.

tested on: HT29; conditions: 72 h, relative to DMSO, 10 µM, Relative cell viability (%)
In short: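 HT29 viability used WST-1 reduction (2 h, 37 °C, A450) after 72 h of treatment; screening compounds were tested singly at 10 µM, with dimethyl sulfoxide as the comparison.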

| Structure (SMILES) | Relative cell viability (%) [%] |
| --- | --- |
| O=C(O)Cc1ccccc1Nc1c(Cl)cccc1Cl [Diclofenac Diethylamine] | 60.68 |

same assay, conditions: 72 h, relative to DMSO; 10 µM

| Structure (SMILES) | Relative cell viability (%) [%] |
| --- | --- |
| CCNC1(C(N)=O)CCN(c2ncnc3c2nc(-c2ccccc2Cl)n3-c2ccc(Cl)cc2)CC1 [Otenabant (CP-945598) HCl] | 70.09 |
| C[C@H](CCC(=O)O)[C@H]1CC[C@H]2[C@@H]3CC[C@@H]4C[C@H](O)CC[C@]4(C)[C@H]3C[C@H](O)[C@]12C [Deoxycholic acid] | 90.6 |
| CCN1CCN(Cc2ccc(Nc3ncc(F)c(-c4cc(F)c5nc(C)n(C(C)C)c5c4)n3)nc2)CC1 [LY2835219] | 5.983 |
| CNC(=O)c1ccc(N2C(=S)N(c3ccc(C#N)c(C(F)(F)F)c3)C(=O)C2(C)C)cc1F [Enzalutamide (MDV3100)] | 86.76 |
| CC1(COc2ccc3c(c2)ncn3-c2ccc3cccc(N4CCC(N)CC4)c3n2)COC1 [Crenolanib (CP-868596)] | 11.17 |
| Cc1nc(NC(=O)N2CCC[C@H]2C(N)=O)sc1-c1ccnc(C(C)(C)C(F)(F)F)c1 [BYL719] | 50.49 |
| CCOC(=O)[C@H](CCc1ccccc1)N[C@@H](C)C(=O)N1CCC[C@H]1C(=O)O [Enalapril Maleate] | 98.82 |
| C=C1[C@H](CO)[C@@H](O)C[C@@H]1n1cnc2c(=O)[nH]c(N)nc21 [Entecavir Hydrate] | 99.22 |
| O=C(O)/C=C/c1ccc(Cn2ccnc2)cc1 [Ozagrel HCl] | 127.9 |
| O=S(=O)(O)CCS [Mesna] | 56.36 |
| CC1(C)S[C@@H]2[C@H](NC(=O)[C@H](NC(=O)N3CCN(S(C)(=O)=O)C3=O)c3ccccc3)C(=O)N2[C@H]1C(=O)O [Mezlocillin Sodium] | 90.303 |
| OC(CCCN1CCCCC1)(c1ccccc1)c1ccccc1 [Diphenidol HCl] | 59.39 |
| NC(=O)c1cn(Cc2c(F)cccc2F)nn1 [Rufinamide] | 91.43 |
| CCCC(CCC)C(=O)O[C@H]1C[C@H]2CC[C@@H](C1)[N+]2(C)C [Anisotropine Methylbromide] | 55.76 |
| CNCC[C@H](Oc1cccc2ccccc12)c1cccs1 [Duloxetine HCl] | 99.61 |
| O=C(N/N=C/c1ccc([N+](=O)[O-])o1)c1ccc(O)cc1 [Nifuroxazide] | 43.03 |
| COC(=O)[C@H](Cc1ccccc1)NC(=O)[C@@H](N)CC(=O)O [Aspartame] (H-Asp-Phe-OMe) | 199.9 |
| C[C@@H]1CCO[C@H]2Cn3cc(C(=O)NCc4ccc(F)cc4F)c(=O)c(O)c3C(=O)N12 [Dolutegravir (GSK1349572)] | 70.87 |
| NC(N)=Nc1nc(CSCCC(N)=NS(N)(=O)=O)cs1 [Famotidine] | 119.6 |
| COc1ccc(C(=O)N2CCCC2=O)cc1 [Aniracetam] | 91.43 |
| CN/C(=N/CCSCc1nc[nH]c1C)NC#N [Cimetidine] | 97.03 |
| CNC(=C[N+](=O)[O-])NCCSCc1ccc(CN(C)C)o1 [Ranitidine] | 97.03 |
| Cc1ccc(Cl)c(Nc2ccccc2C(=O)O)c1Cl [Meclofenamate Sodium] | 83.03 |
| O=c1[nH]c(=O)n(C2CCCO2)cc1F (stereo not drawn) [FT-207 (NSC 148958)] | 74.3 |

| Structure (SMILES) | Relative cell viability (%) [%] |
| --- | --- |
| CC(C)c1nc(CN(C)C(=O)N[C@@H](CCN2CCOCC2)C(=O)N[C@H](CC[C@H](Cc2ccccc2)NC(=O)OCc2cncs2)Cc2ccccc2)cs1 [Cobicistat (GS-9350)] | 63.59 |
| Nc1nc(N)nc(-c2cc(Cl)ccc2Cl)n1 [Irsogladine] | 176.5 |
| Cc1c(F)cc(C(=O)NC2CC2)cc1-c1ccc(C(=O)NCC(C)(C)C)cn1 [Losmapimod (GW856553X)] | 94.44 |
| CCC1(C)CC(=O)NC(=O)C1 [Bemegride] | 88.48 |
| Cc1cccc(C)c1NC(=O)CN1CCCC1=O [Nefiracetam] | 192.8 |
| COc1cc(OC)c(C(=O)CCCN2CCCC2)c(OC)c1 [Buflomedil HCl] | 34.47 |
| CC(C)(C)NCC(O)COc1cccc2c1CCC(=O)N2 (stereo not drawn) [Carteolol HCl] | 86.67 |
| Cc1cccc([C@H](C)c2cnc[nH]2)c1C [Dexmedetomidine HCl (Precedex)] | 113.8 |
| CCc1cc(/C(C)=N/OCc2ccc(C3CCCCC3)c(C(F)(F)F)c2)ccc1CN1CC(C(=O)O)C1 [BAF312 (Siponimod)] | 107.265 |
| COc1cc([C@@H]2c3cc4c(cc3[C@@H](O[C@@H]3O[C@@H]5CO[C@@H](c6cccs6)O[C@H]5[C@H](O)[C@H]3O)[C@H]3COC(=O)[C@H]23)OCO4)cc(OC)c1O [Teniposide] | 34.75 |
| COc1ccc([C@H]2CNC(=O)C2)cc1OC1CCCC1 [S- (+)-Rolipram] | 107.3 |
| C=CC[C@@H]1/C=C(\C)C[C@H](C)C[C@H](OC)[C@H]2O[C@@](O)(C(=O)C(=O)N3CCCC[C@H]3C(=O)O[C@H](/C(C)=C/[C@@H]3CC[C@@H](O)[C@H](OC)C3)[C@H](C)[C@@H](O)CC1=O)[C@H](C)C[C@@H]2OC [Tacrolimus (FK506)] | 102.1 |
| CC(C)(CO)[C@@H](O)C(=O)NCCCO [D panthenol] | 121.4 |
| C[N+](C)(C)C[C@H](O)CC(=O)[O-] [L-carnitine] | 116.1 |
| Cc1c(C(=O)NN2CCCCC2)nn(-c2ccc(Cl)cc2Cl)c1-c1ccc(Cl)cc1 [Rimonabant] | 79.61 |
| FC(F)(F)c1ccc(/C=C/c2nc(COc3ccc(CCCCn4ccnn4)cc3)co2)cc1 [Mubritinib (TAK 165)] | 116.7 |
| CCN1CCC[C@H]1CNC(=O)c1cc(S(N)(=O)=O)ccc1OC [Levosulpiride] | 114.3 |
| COCCCC/C(=N\OCCN)c1ccc(C(F)(F)F)cc1 [Fluvoxamine maleate] | 72.74 |
| O=c1ccn([C@@H]2O[C@H](CO)[C@@H](O)[C@H]2O)c(=O)[nH]1 [Uridine] | 222.2 |
| CC(=O)Nc1cccc(-n2c(=O)n(C3CC3)c(=O)c3c(Nc4ccc(I)cc4F)n(C)c(=O)c(C)c32)c1 [Trametinib (GSK1120212)] | 35.92 |
| CN(C)CCN1C(=O)c2cccc3cc(N)cc(c23)C1=O [Amonafide] | 8.879 |
| O=C1CC[C@@]2(O)[C@H]3Cc4ccc(O)c5c4[C@@]2(CCN3CC2CC2)[C@H]1O5 [Naltrexone HCl] | 104.3 |
| CCN(CC)CCNC(=O)c1c(C)[nH]c(/C=C2\C(=O)Nc3ccc(F)cc32)c1C [Sunitinib] | 29.06 |
